Reference: patent US11667643B2, “RIP1K inhibitors” (priority 2020, dated 2023)
Where two headings read alike, the source gives them in different places.

Assays:
[1] = biological target: RIPK1 (Homo sapiens (Human), UniProt Q13546); assay: biochemical; type: biochemical
Protocol: In this example, compounds of the disclosure were evaluated using a biochemical assay using the ADP-Glo™ technology.
ADP-Glo™ (Promega, Madison, Wis., USA) reagents were thawed at ambient temperature. Kinase Detection Reagent was prepared by mixing kinase detection buffer with the lyophilized kinase detection substrate.
A […] stock volume of 5× Reaction Kinase Buffer was made by mixing 1000 μl of 1M MgCl2, 500 μl of 1M Tris-HCL pH7.4, 0.5 mg/ml (25 mg) of BSA, and 3475 μl of distilled H2O. A 3 ml 2× working stock volume of Reaction Kinase Buffer was made containing a final concentration of 100 μM DTT and 4 mM MnCl2.
Components of RIPK1 enzyme (Rigel Pharmaceuticals, South San Francisco, Calif., USA) were thawed on ice. Diluted RIPK1 was prepared in 1× Kinase Reaction Buffer (diluted from 2× buffer) to 31 ng/well.
1.0 ul of diluted compound was added to a 384 well plate in duplicate. […] The final reaction volume was 5.0 μl. The plate was quickly centrifuged and the reaction was incubated at 30° C. for 30 minutes. Adding 5 μl of ADP-Glo™ terminated the reaction. The plate was quickly centrifuged and the reaction was incubated at room temperature for 40 minutes. Kinase Detection Reagent was then added and incubated at room temperature for 30 minutes. The relative light unit (RLU) of kinase reaction was determined by luminescent (Luminescence 0.1 s) using a Wallac Victor2 Luminometer (PerkinElmer, Waltham, Mass., USA).

[2] = system: U937 cells; assay: U937 cell necroptosis assay (TNFa + zVAD, CellTiter-Glo recovery), functional human RIP1 assay; type: cell-based; settings: Homo sapiens, U-937, 18 h, read-out: U937 Zvad TNF CTG Recovery, U937, TNFa + zVAD (IC50), U937 cells, zVAD-fmk, TNFa 2 ng/mL, 18 hours, CellTiter-Glo
Protocol: (§1) In this example, U937 and L929 cells were exposed to compounds of the present disclosure and a cell necroptosis assay was conducted to evaluate compound activity in functional human RIP1 and murine RIP1 assays.
(§2) U937 and L929 cells were obtained from the American Type Culture Collection (Manassa, Va., USA). Both cells were maintained in logarithmic growth phase in complete RPMI 1640 media (Sigma, ST Louis, Mo., USA) supplemented with 10% fetal bovine serum (Sigma, ST Louis, Mo., USA) at 37° C. with 5% CO2. For necroptosis assay, L929 cells were plated for 18 h in 100 μL/well medium at 10K cells/well in Costar 96-well black clear-bottom plates (Fisher Scientific, Hampton, N.H., USA); U937 cells were plated on the day of the assay in 50 μL/well medium containing 60 uM zVAD-fmk (Lonza, Basel, Switzerland) at 50K cells/well. Medium from L929 cells were removed from the 96-well plates and replaced with 50 μL/well new medium containing 40 uM zVAD-fmk. Each compound of the present disclosure evaluated in this example was serially diluted in DMSO from 2.5 mM in 4-fold dilutions, and then diluted 1:125 in complete medium. 50 μL/well 2× of the compound was then added to the cells in the plates. The cells were pre-incubated with the compound for 1 hour at 37° C. with 5% CO2 and before addition of 10 μL/well 11×TNFa (Peprotech, Rocky Hill, N.J., USA) to give a final concentration of 2 ng/mL for TNFa. The relative amount of necroptosis cells was determined by luminescent using a Wallac Victor2 Luminometer (PerkinElmer, Waltham, Mass., USA) and a CellTiter-Glo® Luminescent Cell Viability Reagent Assay (Promega, Madison, Wis., USA) added per manufacturer instructions after 18 hours of TNFa stimulation at 37° C. with 5% CO2. This example establishes that embodiments of the compounds described herein have unexpectedly potent activity against human RIP1 and murine RIP1, which allows their assessment in in vivo mouse models of disease.

[3] = system: L929 cells; assay: L929 cell necroptosis assay (TNFa + zVAD, CellTiter-Glo recovery), functional murine RIP1 assay; type: cell-based; settings: Mus musculus, L929, 18 h, read-out: L929-CTG-recovery, L929, TNFa + zVAD (IC50), L929 cells, zVAD-fmk, TNFa 2 ng/mL, 18 hours, CellTiter-Glo
Protocol: as §1, §2

[4] = RIPK1 enzyme 31 ng/well, 30° C. for 30 minutes, luminescence, read-out: RIPK1 ADP-Glo Kinase (IC50)

Chain of RIPK1 (Q13546 whole entry, species assumed): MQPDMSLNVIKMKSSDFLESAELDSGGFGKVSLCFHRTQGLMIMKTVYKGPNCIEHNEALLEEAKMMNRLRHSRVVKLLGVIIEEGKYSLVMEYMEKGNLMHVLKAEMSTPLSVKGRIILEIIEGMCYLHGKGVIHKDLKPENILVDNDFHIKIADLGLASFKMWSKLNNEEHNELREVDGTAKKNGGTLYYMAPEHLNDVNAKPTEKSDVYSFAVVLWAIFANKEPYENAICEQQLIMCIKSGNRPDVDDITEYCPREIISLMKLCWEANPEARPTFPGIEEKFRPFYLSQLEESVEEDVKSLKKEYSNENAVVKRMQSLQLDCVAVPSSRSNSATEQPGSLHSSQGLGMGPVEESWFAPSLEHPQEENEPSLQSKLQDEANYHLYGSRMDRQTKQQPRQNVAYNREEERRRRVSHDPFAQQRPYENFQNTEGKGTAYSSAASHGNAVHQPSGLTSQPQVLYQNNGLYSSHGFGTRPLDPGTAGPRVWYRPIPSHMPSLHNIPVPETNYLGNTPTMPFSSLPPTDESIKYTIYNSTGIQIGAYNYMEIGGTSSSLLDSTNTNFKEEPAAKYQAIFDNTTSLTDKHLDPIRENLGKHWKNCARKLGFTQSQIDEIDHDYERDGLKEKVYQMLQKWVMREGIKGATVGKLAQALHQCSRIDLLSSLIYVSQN

| SMILES | IC50 [1] [nM] | IC50 [2] [nM] | IC50 [3] [mM] | IC50 [1, 4] [nM] |
| --- | --- | --- | --- | --- |
| O=C(NC1CSc2cccn2-n2ccnc21)c1ncn(Cc2c(Cl)cccc2Cl)n1 (racemic) [Compound I-29, (±)-1-(2,6-Dichlorobenzyl)-N-(4,5-dihydroimidazo[1,2-d]pyrrolo[2,1-b][1,3,4]thiadiazepin-4-yl)-1H-1,2,4-triazole-3-carboxamide] | 9.8 | 1.1 | 0.000194 |  |
| O=C(NC1COc2ccccc2-n2cccc21)c1n[nH]c(Cc2ccccc2)n1 (racemic) [Compound I-34, (±)-5-Benzyl-N-(6,7-dihydrobenzo[b]pyrrolo[1,2-d][1,4]oxazepin-7-yl)-1H-1,2,4-triazole-3-carboxamide] |  | 1540 | 10 | 139 |
| Cc1cn2c(n1)C(NC(=O)c1ncn(Cc3c(Cl)cccc3Cl)n1)CCc1ccccc1-2 (racemic) [Compound I-35, (±)-1-(2,6-Dichlorobenzyl)-N-(2-methyl-5,6-dihydro-4H-benzo[f]imidazo[1,2-a]azepin-4-yl)-1H-1,2,4-triazole-3-carboxamide] |  | 2680 | 10 | 2080 |
| O=C(NC1CCc2ccccc2-n2c1n[nH]c2=O)c1ncn(Cc2c(Cl)cccc2Cl)n1 (racemic) [Compound I-36, (±)-1-(2,6-Dichlorobenzyl)-N-(1-oxo-2,4,5,6-tetrahydro-1H-benzo[f][1,2,4]triazolo[4,3-a]azepin-4-yl)-1H-1,2,4-triazole-3-carboxamide] |  | 714 | 0.0161 | 2800 |
| O=C(NC1COc2ccccc2-n2cccc21)c1n[nH]c(Cc2ccc(F)cc2)n1 (racemic) [Compound I-37, (±)-N-(6,7-Dihydrobenzo[b]pyrrolo[1,2-d][1,4]oxazepin-7-yl)-5-(4-fluorobenzyl)-1H-1,2,4-triazole-3-carboxamide] |  | 4070 | 10 | 1140 |
| O=C(NC1COc2ccccc2-n2cccc21)c1ncn(Cc2ccccc2F)n1 (racemic) [Compound I-38, (±)-N-(6,7-Dihydrobenzo[b]pyrrolo[1,2-d][1,4]oxazepin-7-yl)-1-(2-fluorobenzyl)-1H-1,2,4-triazole-3-carboxamide] |  | 43.9 | 0.00979 | 22.3 |
| O=C(NC1CCc2ccc(CN3CCN(c4ccncc4)CC3)cc2-n2ccnc21)c1n[nH]c(Cc2ccccc2)n1 (racemic) [Compound I-39, (±)-5-Benzyl-N-(9-((4-(pyridin-4-yl)piperazin-1-yl)methyl)-5,6-dihydro-4H-benzo[f]imidazo[1,2-a]azepin-4-yl)-1H-1,2,4-triazole-3-carboxamide] |  | 1380 | 0.0509 | 1460 |
| Cc1cnc2n1-c1ccccc1CCC2NC(=O)c1ncn(Cc2c(Cl)cccc2Cl)n1 (racemic) [Compound I-44, (±)-1-(2,6-Dichlorobenzyl)-N-(1-methyl-5,6-dihydro-4H-benzo[f]imidazo[1,2-a]azepin-4-yl)-1H-1,2,4-triazole-3-carboxamide] |  | 1660 | 10 | 947 |
| O=C(NC1CSc2cccn2-n2ccnc21)c1n[nH]c(Cc2ccccc2)n1 (racemic) [Compound I-45, (±)-5-Benzyl-N-(4,5-dihydroimidazo[1,2-d]pyrrolo[2,1-b][1,3,4]thiadiazepin-4-yl)-1H-1,2,4-triazole-3-carboxamide] |  | 36.4 | 0.0105 | 31.2 |
| O=C(NC1CCc2ccc(CN3CCN(c4ccncc4)CC3)cc2-n2ccnc21)c1ncn(Cc2c(Cl)cccc2Cl)n1 (racemic) [Compound I-47, (±)-1-(2,6-Dichlorobenzyl)-N-(9-((4-(pyridin-4-yl)piperazin-1-yl)methyl)-5,6-dihydro-4H-benzo[f]imidazo[1,2-a]azepin-4-yl)-1H-1,2,4-triazole-3-carboxamide] |  | 25.7 | 0.0095 | 87.3 |
| O=C(NC1CCc2ccccc2-n2c1noc2=O)c1n[nH]c(Cc2ccccc2)n1 (racemic) [Compound I-48, (±)-5-Benzyl-N-(1-oxo-5,6-dihydro-1H,4H-benzo[f][1,2,4]oxadiazolo[4,3-a]azepin-4-yl)-1H-1,2,4-triazole-3-carboxamide] |  | 40.8 | 10 | 53.4 |
| O=C(NC1CCc2ccccc2-n2ccnc21)c1cc(Oc2ccccc2)ccn1 (racemic) [Compound I-51, (±)-N-(5,6-Dihydro-4H-benzo[f]imidazo[1,2-a]azepin-4-yl)-4-phenoxypicolinamide] |  | 125 | 0.0171 | 49.2 |
| O=C(NC1CCc2ccccc2-n2c1noc2=O)c1cc(Oc2ccccc2)ccn1 (racemic) [Compound I-52, (±)-N-(1-Oxo-5,6-dihydro-1H,4H-benzo[f][1,2,4]oxadiazolo[4,3-a]azepin-4-yl)-4-phenoxypicolinamide] |  | 64.7 | 0.0207 | 32.5 |
| O=C(NC1COc2ccccc2-n2cccc21)c1cc(Oc2ccccc2)ccn1 (racemic) [Compound I-54, (±)-N-(6,7-Dihydrobenzo[b]pyrrolo[1,2-d][1,4]oxazepin-7-yl)-4-phenoxypicolinamide] |  | 1240 | 10 | 582 |
| CC(C)(O)C#Cc1ccc2c(c1)-n1ccnc1C(NC(=O)c1cc(Oc3ccccc3)ccn1)CC2 (racemic) [Compound I-56, (±)-N-(9-(3-Hydroxy-3-methylbut-1-yn-1-yl)-5,6-dihydro-477-benzo[f]imidazo[1,2-a]azepin-4-yl)-4-phenoxypicolinamide] |  | 34.5 | 0.00509 | 56.1 |
| O=C(NC1CCc2ccccc2-n2cnnc21)c1n[nH]c(Cc2ccccc2)n1 (racemic) [Compound I-57, (±)-5-Benzyl-N-(5,6-dihydro-4H-benzo[f][1,2,4]triazolo[4,3-a]azepin-4-yl)-1H-1,2,4-triazole-3-carboxamide] |  | 3650 | 10 | 663 |
| O=C(NC1CCc2ccccc2-n2cnnc21)c1ncn(Cc2c(Cl)cccc2Cl)n1 (racemic) [Compound I-58, (±)-1-(2,6-Dichlorobenzyl)-N-(5,6-dihydro-4H-benzo[f][1,2,4]triazolo[4,3-a]azepin-4-yl)-1H-1,2,4-triazole-3-carboxamide] |  | 74.3 | 10 | 57.3 |
| O=C(NC1CCc2ccccc2-n2cnnc21)c1cc(Oc2ccccc2)ccn1 (racemic) [Compound I-59, (±)-N-(5,6-Dihydro-4H-benzo[f][1,2,4]triazolo[4,3-a]azepin-4-yl)-4-phenoxypicolinamide] |  | 829 | 10 | 118 |
| Cn1nc2n(c1=O)-c1ccccc1CCC2NC(=O)c1ncn(Cc2c(Cl)cccc2Cl)n1 (racemic) [Compound I-60, (±)-1-(2,6-Dichlorobenzyl)-N-(2-methyl-1-oxo-2,4,5,6-tetrahydro-1H-benzo[f][1,2,4]triazolo[4,3-a]azepin-4-yl)-1H-1,2,4-triazole-3-carboxamide] |  | 35800 | 10 | 1290 |
| O=C(NC1CCc2ccc(N3CCC4(CCOCC4)CC3)cc2-n2ccnc21)c1ncn(Cc2c(Cl)cccc2Cl)n1 (racemic) [Compound I-61, (±)-N-(9-(3-Oxa-9-azaspiro[5.5]undecan-9-yl)-5,6-dihydro-4H-benzo[f]imidazo[1,2-a]azepin-4-yl)-1-(2,6-dichlorobenzyl)-1H-1,2,4-triazole-3-carboxamide] |  | 18.1 | 0.000106 | 86.2 |
